From patent publication US20240182445A1 (ONO PHARMACEUTICAL CO., LTD., priority 2019, published 2024)

Tests used:
human TREK-1 [1] = biological target: T1, human TREK-1 (Homo sapiens, UniProt O95069); experiment: TREK-1 Thallium (Tl+) flux assay, Method 1; type: cell-based; details: TREK-1 Thallium (Tl+) flux assay; values without footnote *12 are Method 1
T1 construct: expressed in transfected cells
T1 sequence (O95069 1-426): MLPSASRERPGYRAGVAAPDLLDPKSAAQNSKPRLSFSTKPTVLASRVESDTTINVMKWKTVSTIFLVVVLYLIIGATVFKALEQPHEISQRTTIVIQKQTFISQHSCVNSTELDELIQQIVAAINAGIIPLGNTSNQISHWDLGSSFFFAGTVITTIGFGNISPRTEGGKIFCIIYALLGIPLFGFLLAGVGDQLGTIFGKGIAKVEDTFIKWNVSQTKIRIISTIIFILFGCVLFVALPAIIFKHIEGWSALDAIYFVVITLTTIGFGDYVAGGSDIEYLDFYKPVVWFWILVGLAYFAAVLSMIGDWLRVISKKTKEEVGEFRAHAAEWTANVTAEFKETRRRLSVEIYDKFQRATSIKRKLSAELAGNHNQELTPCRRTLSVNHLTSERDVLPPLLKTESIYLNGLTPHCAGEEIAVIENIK
Procedure, shortened: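 CHO-K1 cells stably expressing human TREK-1, loaded with Thallos dye, received compound or 0.3% DMSO vehicle for 10 min before thallium stimulus buffer. ΔRatio is fluorescence at 25 s after thallium addition over mean pre-addition fluorescence; % inhibition calculated from it.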

human TREK-1 [2] = biological target: T1, human TREK-1; experiment: TREK-1 Manual Patch Clamp (hMPC) assay; type: cell-based; details: CHO-K1 cells stably expressing human TREK-1; whole-cell current at 0 mV
Experimental: The term “patch clamp technique” herein refers to the “gold standard” technique for evaluating TREK channel pharmacology. The detail method is described below.
CHO-K1 cells stably expressing human TREK-1 or HEK293 cells stably expressing human TREK-2 are plated on glass coverslips, and voltage clamped in the whole-cell configuration of the patch clamp technique. Cells were voltage clamped at a holding potential of −80 mV and the stepped to 0 mV for 500 msec. The voltage was subsequently ramped from −120 mV to +80 mV over a 500 msec duration. This step-ramp protocol was repeated every 10 sec. The bathing solution contained the following: 135 mM NaCl, 5 mM KCl, 2 mM CaCl2, 1 mM MgCl2, 5 mM D-Glucose, 10 mM HEPES, 10 mM sucrose (adjusted to pH 7.4 with NaOH, 300 mosmol/kg H2O). The pipette solution contained the following: 135 mM KCl, 2 mM MgCl2, 1 mM EGTA, 10 mM HEPES, 2 mM Na2ATP (adjusted to pH 7.35 with KOH, 285 mosmol/kg H2O). Test compounds were dissolved into the bathing solution. Experiments on TREK-2 were terminated with the addition of the control compound (tert-butyl (3-((4-(benzyloxy)-2-methylphenyl)carbamoyl)-4-chlorophenyl)carbamate) so that maximal inhibition could be determined. The effects of test compound on the currents were calculated at 0 mV using the following equations:
For CHO cells expressing TREK-1 channel: % inhibition=(1-post current/pre current)×100
The compounds shown in Table 2 were prepared in an analogous manner with the appropriate starting materials, and evaluated in our TREK-1 Manual Patch Clamp (hMPC) assay.

plasma protein [3] = experiment: Mouse plasma protein binding (PPB); type: in vitro ADME
Experimental: (§1) These assays were performed according to known methods as generally described in the following references: Conde-Ceide et al. ACS Med. Chem. Lett. 2015, 6, 716-720; Morris et al. J. Med. Chem. 2014, 57, 10192-10197; and Bubser et al. ACS Chem. Neurosci. 2014, 5, 920-942. Abbreviations which have been used in the descriptions of the following tables are; PPB is plasma protein binding; BHB is brain homogenate binding; and CLint is intrinsic clearance in hepatic microsomes.

plasma protein [4] = experiment: Human plasma protein binding (PPB); type: in vitro ADME
Experimental: as §1

[5] = Rat brain homogenate binding (BHB); type: in vitro ADME
Experimental: as §1

[6] = Mouse brain homogenate binding (BHB); type: in vitro ADME
Experimental: as §1

[7] = Rat hepatic microsomal intrinsic clearance; type: in vitro ADME; details: rat hepatic microsomes
Experimental: as §1

[8] = Mouse hepatic microsomal intrinsic clearance; type: in vitro ADME; details: mouse hepatic microsomes
Experimental: as §1

CYP3A4 = CYP3A4 (Homo sapiens, UniProt P08684); experiment: P450 inhibition 3A4; type: in vitro ADME
Sequence of CYP3A4 (P08684 whole entry): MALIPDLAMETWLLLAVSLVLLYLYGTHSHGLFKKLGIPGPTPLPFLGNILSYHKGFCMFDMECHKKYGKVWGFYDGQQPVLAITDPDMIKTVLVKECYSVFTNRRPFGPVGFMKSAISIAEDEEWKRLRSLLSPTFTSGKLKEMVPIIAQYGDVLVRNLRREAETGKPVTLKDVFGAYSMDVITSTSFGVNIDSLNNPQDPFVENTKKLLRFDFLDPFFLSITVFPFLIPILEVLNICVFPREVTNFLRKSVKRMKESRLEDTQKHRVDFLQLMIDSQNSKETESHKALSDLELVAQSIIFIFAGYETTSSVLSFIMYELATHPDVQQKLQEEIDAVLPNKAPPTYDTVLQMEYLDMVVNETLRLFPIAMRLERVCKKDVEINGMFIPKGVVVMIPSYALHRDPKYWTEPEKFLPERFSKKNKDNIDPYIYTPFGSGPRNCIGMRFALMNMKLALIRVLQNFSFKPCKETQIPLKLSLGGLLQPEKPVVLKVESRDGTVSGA
Experimental: as §1

CYP2C9 = CYP2C9 (Homo sapiens, UniProt P11712); experiment: P450 inhibition 2C9; type: in vitro ADME
Sequence of CYP2C9 (P11712 whole entry): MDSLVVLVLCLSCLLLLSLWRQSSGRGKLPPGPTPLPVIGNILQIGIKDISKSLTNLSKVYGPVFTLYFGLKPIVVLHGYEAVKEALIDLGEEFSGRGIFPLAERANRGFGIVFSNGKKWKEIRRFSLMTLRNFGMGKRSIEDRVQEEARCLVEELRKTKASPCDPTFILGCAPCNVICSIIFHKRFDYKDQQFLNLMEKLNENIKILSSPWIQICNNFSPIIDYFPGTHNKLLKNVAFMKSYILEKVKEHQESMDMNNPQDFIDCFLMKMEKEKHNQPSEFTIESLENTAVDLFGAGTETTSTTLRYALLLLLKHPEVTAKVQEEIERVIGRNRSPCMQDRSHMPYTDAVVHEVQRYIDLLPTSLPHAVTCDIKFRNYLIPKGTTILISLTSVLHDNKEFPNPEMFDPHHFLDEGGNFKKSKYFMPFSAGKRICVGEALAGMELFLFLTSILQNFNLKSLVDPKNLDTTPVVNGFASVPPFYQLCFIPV
Experimental: as §1

[9] = Rat in vivo pharmacokinetics and brain distribution (i.v. cassette); details: iv, rat i.v. cassette injection
Experimental: Compound 12 was tested in several in vivo assays to investigate pharmacokinetics and brain distribution. Abbreviations which have been used in the descriptions of following tables are; CLp is plasma clearance; Vss is volume of distribution at steady state; Elim. t1/2 is half-life for elimination; Kp is tissue distribution partition coefficient; Kp,uu is unbound tissue distribution partition coefficient.

IC50 (human TREK-1 [1]): 130 nM | IC50 (human TREK-1 [2]): 60 nM | Mouse PPB (% bound) (plasma protein [3]): 99.2 % bound | Human PPB (% bound) (plasma protein [4]): 98.8 % bound | Rat BHB (% bound) [5]: 99.7 % bound | Mouse BHB (% bound) [6]: 99.7 % bound | CLint scaled [7]: 54 mL/min/kg | CLint scaled [8]: 103 mL/min/kg | IC50 (CYP3A4): > 30000 nM | IC50 (CYP2C9): 5700 nM | Kp uu ([9]; brain, unbound tissue distribution partition coefficient, read-out: Rat brain: plasma Kp, uu): 0.19 | clearance ([9]; plasma clearance, read-out: Rat CLp): 28 mL/min/kg | half-life ([9]; plasma, half-life for elimination, read-out: Rat Elim. t1/2 (converted)): 2 h | Vd ([9]; plasma, volume of distribution at steady state, read-out: Rat Vss): 4.7 L/kg
Compound: CC(=O)N[C@H]1CC[C@@H](n2ncc(Cl)c2C(=O)Nc2ncc(C#Cc3ccccc3)cc2C)CC1 [Compound 12, 1-(cis-4-acetamidocyclohexyl)-4-chloro-N-(3-methyl-5-(phenylethynyl)pyridin-2-yl)-1H-pyrazole-5-carboxamide]
